This is an account of results in ChEMBL document CHEMBL4118066, “QSAR-driven design, synthesis and discovery of potent chalcone derivatives with antitubercular activity” (Eur J Med Chem, 2017).

The structures appear in SMILES notation. Converted amounts (≈) assume the structure as drawn.

Holding throughout (format): functional
For assay [1], the system named is Mycobacterium tuberculosis. Nature of the assay: Antitubercular activity against Mycobacterium tuberculosis H37Rv ATCC 27294 treated for 10 days under hypoxic condition followed by 28 hrs of normoxic recovery.
The test system of the next assay is Candida albicans. The assay is described as follows: Antifungal activity against Candida albicans ATCC 90028 after 36 to 48 hrs.
For the next assay, the system named is Staphylococcus aureus. Nature of the assay: Antibacterial activity against Staphylococcus aureus ATCC 29213 after 16 to 20 hrs.
The test system of assay [2] is Mycobacterium tuberculosis. The assay is described as follows: microbe, parasite or virus in culture. The settings on record: H37Rv ATCC 27294, 168 h.
Description: Antitubercular activity against Mycobacterium tuberculosis H37Rv ATCC 27294 after 7 days under normoxic condition by microplate Alamar blue assay
Assay [3] concerns Mycolicibacterium smegmatis. Nature of the assay: Antimycobacterial activity against Mycobacterium smegmatis ATCC MC2155 after 7 days under normoxic condition by microplate Alamar blue assay. Particulars: str. MC2 155, 168 h. On the technique in general: Alamar Blue is a resazurin reagent that responds to reducing activity.
A further assay has as its system Escherichia coli. Nature of the assay: Antibacterial activity against Escherichia coli ATCC 25922 after 16 to 20 hrs.
The subject of a further assay is Mycobacteroides chelonae. Nature of the assay: Antimycobacterial activity against Mycobacterium chelonae ATCC 35752 after 7 days under normoxic condition by microplate Alamar blue assay. Particulars: ATCC 35752, 168 h.
In the next assay the test system is Mycobacterium avium. The assay is described as follows: Antimycobacterial activity against Mycobacterium avium ATCC 15769 after 7 days under normoxic condition by microplate Alamar blue assay. Particulars: ATCC 15769, 168 h.
The subject of the next assay is Mycobacterium kansasii. Nature of the assay: Antimycobacterial activity against Mycobacterium kansasii ATCC 12478 after 7 days under normoxic condition by microplate Alamar blue assay. Particulars: ATCC 12478, 168 h.
The subject of another assay is Mycobacterium marinum. The assay is described as follows: Antimycobacterial activity against Mycobacterium marinum ATCC 927 after 7 days under normoxic condition by microplate Alamar blue assay. The settings on record: ATCC 927, 168 h.
The test system of assay [4] is Mycobacteroides abscessus. The assay is described as follows: Antimycobacterial activity against Mycobacterium abscessus ATCC 19977 after 7 days under normoxic condition by microplate Alamar blue assay. Particulars: ATCC 19977, 168 h.

Take `O=C(/C=C/c1ccc([N+](=O)[O-])o1)c1ccc(Br)cc1`: the MIC90 in assay [1] is 6.76 µM (≈ 2.18 µg/mL); with Candida albicans, 4.93 µM (≈ 1.59 µg/mL); with Staphylococcus aureus, 0.36 µM (≈ 0.116 µg/mL); in [2], 2.5 µM (≈ 0.805 µg/mL); in assay [3], 7.12 µM (≈ 2.29 µg/mL); against Escherichia coli, over 10 µM.

Turning to `O=C(/C=C/c1ccc([N+](=O)[O-])o1)c1ccc(N2CCCCC2)cc1`, the MIC90 in assay [1] was 10.9 µM (≈ 3.56 µg/mL); against Candida albicans, over 10 µM; with Staphylococcus aureus, over 10 µM; in assay [2], 3.42 µM (≈ 1.12 µg/mL); in [3], over 10 µM; in the assay with Escherichia coli, over 10 µM.

For `COc1ccc(/C=C/C(=O)c2ccc(-c3ccccc3)cc2)cc1`, the MIC90 was over 10 µM in [1]; over 10 µM in the assay on Candida albicans; 1.18 µM (≈ 0.371 µg/mL) with Staphylococcus aureus; over 10 µM against Mycobacteroides chelonae; over 10 µM in the assay on Mycobacterium avium; over 10 µM in [2]. The MIC90 (in [3]; in the assay on Escherichia coli; against Mycobacterium kansasii; with Mycobacterium marinum; in assay [4]) was over 10 µM throughout.

`CN(C)c1ccc(/C=C/C(=O)c2ccc(-c3ccccc3)cc2)cc1`: the MIC90 (in assay [1]; in the assay with Candida albicans; against Staphylococcus aureus; against Mycobacteroides chelonae; against Mycobacterium avium; in assay [2]) was over 10 µM in each case. Further, the MIC90 (in assay [3]; in the assay with Escherichia coli; in the assay with Mycobacterium kansasii; in the assay with Mycobacterium marinum; in [4]) was over 10 µM in each case.

On to `O=C(/C=C/c1ccc([N+](=O)[O-])o1)c1ccc(N2CCCC2)cc1`, for which the MIC90 was 4.3 µM (≈ 1.34 µg/mL) in assay [1]; over 10 µM in the assay with Candida albicans; over 10 µM in the assay with Staphylococcus aureus; over 10 µM with Mycobacteroides chelonae; over 10 µM against Mycobacterium avium; over 10 µM in assay [2]. Also, the MIC90 was over 10 µM in assay [3]; over 10 µM against Escherichia coli; 0.39 µM (≈ 0.122 µg/mL) with Mycobacterium kansasii; over 10 µM against Mycobacterium marinum; over 10 µM in assay [4].

With `O=C(/C=C/c1ccc([N+](=O)[O-])cc1)c1ccc(N2CCCCC2)cc1`, the MIC90 (in assay [1]; against Candida albicans; against Staphylococcus aureus; in the assay on Mycobacteroides chelonae; against Mycobacterium avium; in assay [2]) was over 10 µM throughout. In addition, the MIC90 (in assay [3]; in the assay with Escherichia coli; with Mycobacterium kansasii; against Mycobacterium marinum; in assay [4]) was over 10 µM throughout.

On to `Cc1ccc(C(=O)/C=C/c2ccc([N+](=O)[O-])s2)cc1`, for which the MIC90 is 2.05 µM (≈ 0.56 µg/mL) in [1]; over 10 µM with Candida albicans; over 10 µM against Staphylococcus aureus; over 10 µM with Mycobacteroides chelonae; 2.3 µM (≈ 0.629 µg/mL) against Mycobacterium avium; 1.87 µM (≈ 0.511 µg/mL) in assay [2]. Moreover, the MIC90 in [3] was over 10 µM; in the assay on Escherichia coli it was over 10 µM; against Mycobacterium kansasii it was 1.54 µM (≈ 0.421 µg/mL); with Mycobacterium marinum, over 10 µM; in [4], over 10 µM.

Regarding `O=C(/C=C/c1ccc([N+](=O)[O-])s1)c1ccc(C2CCCCC2)cc1`, the MIC90 in [1] was 5.75 µM (≈ 1.96 µg/mL); in the assay with Candida albicans, over 10 µM; with Staphylococcus aureus it was over 10 µM; in the assay on Mycobacteroides chelonae, over 10 µM; against Mycobacterium avium it was 5.99 µM (≈ 2.05 µg/mL); in [2] it was over 10 µM. Besides, the MIC90 in assay [3] was over 10 µM; with Escherichia coli, over 10 µM; against Mycobacterium kansasii, 9.26 µM (≈ 3.16 µg/mL); in the assay with Mycobacterium marinum it was over 10 µM; in [4], over 10 µM.

In the case of `O=C(/C=C/c1ccc([N+](=O)[O-])s1)c1ccc(N2CCOCC2)cc1`, the MIC90 (in assay [1]; against Candida albicans; in the assay with Staphylococcus aureus; in the assay with Mycobacteroides chelonae; with Mycobacterium avium; in [2]) was over 10 µM in each case. The MIC90 in assay [3] is over 10 µM; with Escherichia coli, over 10 µM; in the assay on Mycobacterium kansasii it was 8.27 µM (≈ 2.85 µg/mL); with Mycobacterium marinum, over 10 µM; in [4] it was over 10 µM.

In the case of `O=C(/C=C/c1ccco1)c1ccc(N2CCCCC2)cc1`, the MIC90 (in assay [1]; against Candida albicans; in the assay with Staphylococcus aureus; in the assay on Mycobacteroides chelonae; in the assay on Mycobacterium avium; in assay [2]) was over 10 µM each time. Besides, the MIC90 (in assay [3]; with Escherichia coli; in the assay on Mycobacterium kansasii; with Mycobacterium marinum; in [4]) was over 10 µM throughout.

On to `CSc1ccc(C(=O)/C=C/c2ccco2)cc1`, for which the MIC90 (in assay [1]; in the assay on Candida albicans; against Staphylococcus aureus; with Mycobacteroides chelonae; against Mycobacterium avium; in assay [2]) was over 10 µM throughout. Besides, the MIC90 (in assay [3]; against Escherichia coli; in the assay on Mycobacterium kansasii; with Mycobacterium marinum; in [4]) was over 10 µM in each case.

`O=C(/C=C/c1cccc([N+](=O)[O-])c1)c1ccc(N2CCCCC2)cc1`: the MIC90 (in [1]; with Candida albicans; in the assay on Staphylococcus aureus; with Mycobacteroides chelonae; against Mycobacterium avium; in [2]) was over 10 µM each time. The MIC90 (in assay [3]; against Escherichia coli; in the assay with Mycobacterium kansasii; in the assay on Mycobacterium marinum; in [4]) was over 10 µM each time.

Take `O=C(/C=C/c1ccc(Cl)s1)c1ccc(-n2ccnc2)cc1`: the MIC90 in [1] is 9.75 µM (≈ 3.07 µg/mL); with Candida albicans it was over 10 µM; against Staphylococcus aureus it was over 10 µM; against Mycobacteroides chelonae, over 10 µM; in the assay with Mycobacterium avium it was over 10 µM; in [2], 9.29 µM (≈ 2.92 µg/mL). Besides, the MIC90 in assay [3] was over 10 µM; in the assay on Escherichia coli it was over 10 µM; against Mycobacterium kansasii, 9.17 µM (≈ 2.89 µg/mL); in the assay with Mycobacterium marinum it was over 10 µM; in assay [4], over 10 µM.

Take `CC(C)(C)c1ccc(C(=O)/C=C/c2ccc[nH]2)cc1`: the MIC90 (in assay [1]; against Candida albicans; in the assay on Staphylococcus aureus; in the assay on Mycobacteroides chelonae; against Mycobacterium avium; in assay [2]) was over 10 µM in each case. Besides, the MIC90 (in [3]; in the assay with Escherichia coli; against Mycobacterium kansasii; with Mycobacterium marinum; in [4]) was over 10 µM in each case.

Regarding `C[C@@H]1[C@H](O)[C@@H](C)/C=C/C=C/C=C/C=C/C=C/C=C/C=C/[C@H](O[C@@H]2O[C@H](C)[C@@H](O)[C@H](N)[C@@H]2O)C[C@@H]2O[C@](O)(C[C@@H](O)C[C@@H](O)[C@H](O)CC[C@@H](O)C[C@@H](O)CC(=O)O[C@H]1C)C[C@H](O)[C@H]2C(=O)O` [AMPHOTERICIN B], in the assay with Candida albicans, the MIC90 was under 0.004 µM.

With `CC1(C)S[C@@H]2[C@H](NC(=O)[C@H](N)c3ccccc3)C(=O)N2[C@H]1C(=O)O` [AMPICILLIN], the figures for the MIC90 with Staphylococcus aureus and in the assay on Escherichia coli were 0.25 µM (≈ 0.0874 µg/mL) and 1.18 µM (≈ 0.412 µg/mL), respectively.

`NNC(=O)c1ccncc1` [ISONIAZID]: the MIC90 in [1] was over 256 µM; in [2] it was 0.41 µM (≈ 0.0562 µg/mL); in assay [3], over 10 µM.
